Data from PubChem BioAssay (NCI).
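Five concentrations, 48 hours, 96-well plates. TGI: concentration producing complete growth inhibition.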

Key:
Assay in all cases: NCI-60 cell line screen, 48 h
DU-145 prostate = tested on: DU-145 prostate
SF-295 CNS = tested on: SF-295 CNS
OVCAR-5 ovarian = tested on: OVCAR-5 ovarian
NCI-H23 lung = tested on: NCI-H23 lung
HT29 colon = tested on: HT29 colon
IGROV1 ovarian = tested on: IGROV1 ovarian
COLO 205 colon = tested on: COLO 205 colon
HOP-92 NSCLC = tested on: HOP-92 NSCLC
OVCAR-8 ovarian = tested on: OVCAR-8 ovarian
UO-31 renal = tested on: UO-31 renal
786-0 renal = tested on: 786-0 renal
NCI-H522 lung = tested on: NCI-H522 lung
KM12 colon = tested on: KM12 colon
MALME-3M melanoma = tested on: MALME-3M melanoma
RXF 393 renal = tested on: RXF 393 renal
SW-620 colon = tested on: SW-620 colon
MDA-N = tested on: MDA-N
SN12C renal = tested on: SN12C renal
ACHN renal = tested on: ACHN renal
A498 renal = tested on: A498 renal
SK-OV-3 ovarian = tested on: SK-OV-3 ovarian
OVCAR-3 ovarian = tested on: OVCAR-3 ovarian
K-562 leukemia = tested on: K-562 leukemia
SNB-75 CNS = tested on: SNB-75 CNS
HCT-15 colon = tested on: HCT-15 colon
NCI/ADR-RES ovarian = tested on: NCI/ADR-RES ovarian
HCT-116 colon = tested on: HCT-116 colon
UACC-257 melanoma = tested on: UACC-257 melanoma
UACC-62 melanoma = tested on: UACC-62 melanoma
TK-10 renal = tested on: TK-10 renal
M14 melanoma = tested on: M14 melanoma
HOP-62 NSCLC = tested on: HOP-62 NSCLC
OVCAR-4 ovarian = tested on: OVCAR-4 ovarian
SF-539 CNS = tested on: SF-539 CNS
CAKI-1 renal = tested on: CAKI-1 renal
SNB-19 CNS = tested on: SNB-19 CNS
SR leukemia = tested on: SR leukemia
MDA-MB-435 = tested on: MDA-MB-435
SF-268 CNS = tested on: SF-268 CNS
MOLT-4 leukemia = tested on: MOLT-4 leukemia
NCI-H226 lung = tested on: NCI-H226 lung
CCRF-CEM leukemia = tested on: CCRF-CEM leukemia
HCC-2998 colon = tested on: HCC-2998 colon
EKVX NSCLC = tested on: EKVX NSCLC
NCI-H460 lung = tested on: NCI-H460 lung
LOX IMVI melanoma = tested on: LOX IMVI melanoma
SK-MEL-2 melanoma = tested on: SK-MEL-2 melanoma
T-47D breast = tested on: T-47D breast
BT-549 breast = tested on: BT-549 breast
MDA-MB-231 breast = tested on: MDA-MB-231 breast
PC-3 prostate = tested on: PC-3 prostate
A549 NSCLC = tested on: A549 NSCLC
U251 CNS = tested on: U251 CNS
SK-MEL-28 melanoma = tested on: SK-MEL-28 melanoma
MCF7 breast = tested on: MCF7 breast
SK-MEL-5 melanoma = tested on: SK-MEL-5 melanoma
HS 578T breast = tested on: HS 578T breast
HL-60(TB) leukemia = tested on: HL-60(TB) leukemia
RPMI-8226 leukemia = tested on: RPMI-8226 leukemia

Measured: TGI

COC(=O)C(/C(=N\O)C(=O)Nc1cccc(Cl)c1C)c1cnc2ccccc2n1 (stereo not given)
not listed: HS 578T breast | HL-60(TB) leukemia | RPMI-8226 leukemia
> 100 µM: all other assays above

CC12CCCC3(CC(=O)C(C)(C)C3C(=O)C1)C2 (stereo not given)
not listed: RXF 393 renal | A498 renal | SF-539 CNS | HCC-2998 colon | MDA-MB-231 breast
> 100 µM: all other assays above
